This note sets out measurements from the SangsterLogP compilation.

For orientation: logP means a log measure of how a compound divides between an organic and an aqueous phase. A low value points to lower lipophilicity.

Turning to `c1csc(-c2cccs2)c1`, the logP came to 3.75.
With `c1ccc2c(c1)Sc1ccccc1S2`, the logP turned out to be 4.47.
Same read-out and setting: for `c1ccc2c(c1)Oc1ccccc1O2` the value was 4.19; for `c1ccc2c(c1)Cc1ccccc1O2`, 4.23; for `c1ccc(-c2ccccn2)nc1`, 1.67.
On the same count and under the same terms, for `c1ccc2cc3c(cc2c1)sc1ccccc13` the value was 5.07.
The same measure, in the same setting: next, `c1ccc2c(c1)COC2`: 1.63; `c1ccc2sccc2c1`: 3.26.

The source holds these as a separate data set.
Compound `c1cc(-c2ccncc2)ccn1` came in with a logP of 1.33.
With `c1ccc2c(c1)ccc1ncccc12`, the log partition coefficient (logP) came to 3.25.
Still for that read-out and setting: next, `c1ccc2cc3cc4cc5ccccc5cc4cc3cc2c1`: 7.11.
`c1cnccn1`: the log partition coefficient (logP) was -0.05.
The compound `c1cc2ccc3ccc4ccc5cccc6c(c1)c2c3c4c56` gave a logP of 7.04.
Still for that read-out and setting: for `c1ccc2c(c1)ccc1c2ccc2c3ccccc3ccc21` the value was 7.11.
`c1ccc2c(c1)cc1ccc3cccc4c5ccccc5c2c1c34` registered a logP of 7.71.
In turn, `c1ccc2cc3c4ccccc4c4ccccc4c3cc2c1` registered a logP of 7.11.
Same read-out and setting: for `c1ccc(-c2cccc(-c3ccccc3)n2)cc1` the value was 4.6; for `c1ccc2c(c1)ccc1c3ccc4ccccc4c3[nH]c21`, 5.89; for `c1ccc2cc3c(cc2c1)oc1ccccc13`, 5.08.
Same read-out and setting: for `c1ccc2c(c1)c1cccc3ccc4cccc2c4c31` the value was 6.44; for `c1cc2c3c(c1)ccc1ccc4cccc-2c4c13`, 6.63.
Same read-out and setting: next, `c1cc2ccc3cc4cccc5ccc6cc(c1)c2c3c6c54`: 7.04; `c1ccc(-c2c3ccccc3c(-c3ccccc3)c3ccccc23)cc1`: 8.46; `c1ccc(-c2cc3cccnc3c3ncccc23)cc1`: 3.
The compound `c1cnc2c(c1)ccc1ncccc12` registered a logP of 1.93.
Still for that read-out and setting: next, `c1ccc2cc3c(ccc4c5ccccc5ccc34)cc2c1`: 7.11; `c1ccc2c(c1)c1ccccc1c1ccccc21`: 5.84; `c1ccc2occc2c1`: 2.53.
Still for that read-out and setting: for `c1ccc2c(c1)ccc1cccnc12` the value was 3.25; for `c1ccc2c(c1)CCO2`, 2.26.
On the same count and under the same terms, for `c1cnc2c(c1)ccc1cccnc12` the value was 1.93; for `C1=Cc2ccc3c4c(ccc1c24)C=C3`, 5.07.
On to `c1ccc2c(c1)ccc1c2ccc2ccc3ccccc3c21`, for which the logP turned out to be 7.11.
Same read-out and setting: next, `c1ccc(-c2cccc(-c3ccccn3)n2)nc1`: 1.96.
Still for that read-out and setting: next, `c1ccc2c(c1)c1ccccc1c1c3ccccc3c3ccccc3c21`: 8.39.
